One experiment concerns MRSA wound biofilms. Kind of experiment: SEM of Tegaderm wound dressing, MRSA. The format is in vivo, CD1 mice. As to conditions: dressing removed on Day 3, treated three times a day. An excerpt:
The Tegaderm dressing used in the murine wound model is an excellent substrate for bacterial adhesion and biofilm formation.[5],[15] […] We imaged three to four randomly selected areas of each Tegaderm sample at two magnifications each. Each image is scored for the presence/absence of bacterial cells, either rod-shaped P. aeruginosa, ∼1 μm in diameter, or spherical MRSA cocci, ∼0.9 μm in diameter. Images are also scored for biofilm-like structures defined by having multiple bacteria embedded in an obvious three-dimensional matrix. These distinctions are shown by representative images of the fixed Tegaderm dressings in Figure 9A,B. In vehicle control samples, we observed that P. aeruginosa frequently forms an open, three-dimensional matrix in which many cells are entangled in μm-long fibers. We observed that MRSA also forms a matrix in which cells are close-packed in strands that comprise a large-scale mesh. Every SEM image (68/68) from vehicle control samples of the two bacteria contained obvious visible bacteria, and most of these images contained ≥50 individual cells. In samples from peptide-treated animals, 57 of 68 (84%) of images had no visible bacteria. […] We performed a statistical analysis of observed bacteria and biofilms using the binomial equation. P-values for all comparisons of treated vs vehicle were less than 0.001. […]

Experiment [1] relates to Acinetobacter baumannii (PDR) Tulane isolate. As to conditions: PDR) Tulane isolate.

≈ marks a conversion by molar mass, not a printed value. Where a SMILES comes first, the peptide text is derived from it. [ ]: non-standard residue; d: D form.

The results in this text go back to article PMC10111420, “Optimization of Host Cell-Compatible, Antimicrobial Peptides Effective against Biofilms and Clinical Isolates of Drug-Resistant Bacteria” (ACS Infectious Diseases, 2023).

With `CC(C)C[C@@H](NC(=O)[C@@H](CCC(N)=O)NC(=O)[C@@H](CCCNC(=N)N)NC(=O)[C@@H](CCCNC(=N)N)NC(=O)[C@@H](C)NC(=O)[C@@H](Cc1c[nH]c2ccccc12)NC(=O)[C@@H](CCCNC(=N)N)NC(=O)[C@H](N)CCCNC(=N)N)C(=O)N[C@H](C)C(=O)N[C@H](Cc1ccccc1)C(=O)N[C@H](C)C(=O)N[C@H](Cc1ccccc1)C(=O)N[C@H](CCCNC(=N)N)C(=O)N[C@H](CCCNC(=N)N)C(N)=O` [D-CONGA-Q7] (H-[dR][dR][dW][dA][dR][dR][dQ][dL][dA][dF][dA][dF][dR][dR]-NH2; N-terminus assumed), in the experiment with MRSA wound biofilms (images with bacteria / all random images), the “MRSA: Bacteria Present (SEM images of Tegaderm)” value is reported as 3/35. Besides, in the experiment on MRSA wound biofilms (images with biofilm / all random images), the “MRSA: Biofilm present (SEM images of Tegaderm)” value is reported as 0/35. The “MIC, AB (PDR)Tulane” value in experiment [1] was found to be 1.1 µM (≈ 2.08 µg/mL).
